Data: patent US9334280B2, “Synthetic rigidin analogues as anticancer agents, salts, solvates and prodrugs thereof, and method of producing same” (New Mexico Technical Research Foundation, priority 2012, dated 2016)
Like-named read-outs stand apart in the source and are kept apart here.

Legend:
[1] = tested on: HeLa cervical adenocarcinoma cells; assay: MTT antiproliferative assay, HeLa; type: cell-based; conditions: Homo sapiens
Protocol: (§1) Human T-cell leukemia cell line Jurkat (ATCC TIB-152, E6-1 clone) was cultured in RPMI-1640 (Invitrogen) supplemented with 10% FBS (Invitrogen), 100 mg/L penicillin G, 100 mg/L streptomycin, 1.0 mM sodium pyruvate, 1.5 g/L sodium bicarbonate, and 4.5 g/L glucose (all from Sigma). Human cervical cancer cell line HeLa (ATCC S3) was cultured in DMEM (Invitrogen) supplemented with 10% FBS, 100 mg/L penicillin G, and 100 mg/L streptomycin. MCF-7 (human mammary carcinoma) cells were cultured in DMEM supplemented with 1.0 mM sodium pyruvate, 1% GlutaMax™-1 (Invitrogen), 100 μg/mL penicillin, 100 μg/mL streptomycin, and 10% FBS. Human uterine sarcoma MES-SA and MES-SA/Dx5 cells were cultured in RPMI-1640 medium supplemented with 10% FBS, 100 mg/L penicillin G and 100 mg/L streptomycin. All cells were incubated at 37° C. in a humidified atmosphere with 5% CO2. The other cell lines were maintained in a similar fashion as previously described.
(§2) To evaluate antiproliferative properties of the compounds of Formula I, mitochondrial dehydrogenase activities were measured using the MTT assay. The cell lines were prepared by trypsinizing and seeding […] cells per well into microplates. All compounds were reconstituted in dimethyl sulfoxide (DMSO) at a concentration of either 100 mM or 25 mM prior to treatment. The cells were grown for 24 hrs before treatment at concentrations ranging from 0.004 to 100 microM and incubated for 48 hrs in 200 microL media. 20 microL of MTT reagent in serum free medium (5 mg/mL) was added to each well and incubated further for 2 hrs. Media was removed and the resulting formazan crystals were re-solubilized in 100 microL of DMSO and the optical density (OD) was measured using a Thermomax Molecular Device plate reader at a wavelength of 490 nm. The experiments were performed in quadruplicate and repeated at least twice for each compound per cell line. Cells treated with 0.1% DMSO were used as a negative control, while phenyl arsine oxide (PAO) was used as a positive killing control.
(§3) Human cancer cell lines were obtained from the American Type Culture Collection (ATCC, Manassas, Va., USA), the European Collection of Cell Culture (ECACC, Salisbury, UK) and the Deutsche Sammlung von Mikroorganismen and Zellkulturen (DSMZ, Braunschweig, Germany). Human cervical adenocarcinoma HeLa cells were cultured in DMEM supplemented with 10% fetal bovine serum (FBS). Human mammary carcinoma MCF-7 cells were cultured in RPMI supplemented with 10% FBS. The U87 and U373 cells were cultured in DMEM culture medium (Lonza code 12-136F, Vervier, Belgium), while the SKMEL-28 and A549 cells were cultured in RPMI culture medium (Lonza; code 12-115F) supplemented with 10% heat-inactivated FBS (Lonza, FBS South America code DE14-801F). […] All cell lines were cultured in T25 flasks, maintained and grown at 37° C., 95% humidity, 5% CO2.
(§4) To evaluate antiproliferative properties of the synthesized compounds, the MTT assay was used. The cell lines were assessed by trypsinizing each cell line and seeding 4×10^3 cells per well into 96-well plates. All compounds were dissolved in DMSO at a concentration of either 100 mM or 50 mM prior to cell treatment. The cells were grown for 24 h and then treated with compounds at concentrations ranging from 0.04 to 100 μM and incubated for 48 h in 200 μL media. 20 μL of MTT reagent in serum free medium (5 mg/mL) was added to each well and incubated further for 2 h. Media was removed, and the resulting formazan crystals were re-solubilized in 200 μL of DMSO. A490 was measured using a Thermomax Molecular Device plate reader. The experiments were performed in quadruplicate and repeated at least twice for each compound per cell line. Cells treated with 0.1% DMSO were used as a control, and 1 μM phenyl arsine oxide (PAO) was used as a positive killing control.

[2] = tested on: MCF-7 mammary gland adenocarcinoma cells; assay: MTT antiproliferative assay, MCF-7; type: cell-based; conditions: Homo sapiens
Protocol: as §1, §2, §3, §4

[3] = Table 5, 48 h, MTT, ± SD, read-out: cell viability GI50, HeLa
[4] = MCF7, Table 5, 48 h, MTT, ± SD, read-out: cell viability GI50, MCF-7
[5] = Table 1, 48 h treatment, MTT, ± SD, read-out: GI50 in vitro Values, HeLa
[6] = MCF7, Table 1, 48 h treatment, MTT, ± SD, read-out: GI50 in vitro Values, MCF-7

| SMILES | GI50 [1, 3] | GI50 [2, 4] | GI50 [1, 5] | GI50 [2, 6] | further results |
| --- | --- | --- | --- | --- | --- |
| O=C(c1ccccc1)c1[nH]c2[nH]c(=O)[nH]c(=O)c2c1-c1ccccc1 [Compound 2] | > 50 µM | > 50 µM | – | – | – |
| O=C(c1ccccc1)c1[nH]c2[nH]c(-c3ccccc3)nc(=O)c2c1-c1ccccc1 [Compound 3, 6-Benzoyl-2-phenyl-5-phenyl-1H-pyrrolo[2,3-d]pyrimidin-4(7H)-one] | > 50 µM | > 50 µM | – | – | – |
| O=C(c1ccccc1)c1[nH]c2[nH]c(-c3cccnc3)nc(=O)c2c1-c1ccccc1 [Compound 4] | > 50 µM | > 50 µM | – | – | – |
| CCOC(=O)c1nc(=O)c2c(-c3ccccc3)c(C(=O)c3ccccc3)[nH]c2[nH]1 [Compound 7] | > 50 µM | > 50 µM | – | – | – |
| CCOC(=O)CCc1nc(=O)c2c(-c3ccccc3)c(C(=O)c3ccccc3)[nH]c2[nH]1 [Compound 10, 6-Benzoyl-2-(2-ethoxycarbonylethyl)-5-phenyl-1H-pyrrolo[2,3-d]pyrimidin-4(7H)-one] | 0.78 ± 0.05 µM | 0.93 ± 0.07 µM | – | – | – |
| CCCCc1nc(=O)c2c(-c3ccccc3)c(C(=O)c3ccccc3)[nH]c2[nH]1 [Compound 11, 6-Benzoyl-2-butyl-5-phenyl-1H-pyrrolo[2,3-d]pyrimidin-4(7H)-one] | 0.34 ± 0.01 µM | 0.23 ± 0.01 µM | – | – | – |
| CCc1nc(=O)c2c(-c3ccccc3)c(C(=O)c3ccccc3)[nH]c2[nH]1 [Compound 12] | 0.92 ± 0.11 µM | 1.1 ± 0.1 µM | – | – | – |
| O=C(c1ccccc1)c1[nH]c2[nH]c(CF)nc(=O)c2c1-c1ccccc1 [Compound 14] | 3 ± 0.2 µM | 3.2 ± 0.2 µM | – | – | – |
| O=C(c1ccccc1)c1[nH]c2[nH]c(C(F)F)nc(=O)c2c1-c1ccccc1 [Compound 15, 6-Benzoyl-2-(difluoromethyl)-5-phenyl-1H-pyrrolo[2,3-d]pyrimidin-4(7H)-one] | 5.1 ± 0.2 µM | 4.2 ± 0.5 µM | – | – | – |
| O=C(c1ccccc1)c1[nH]c2[nH]c(C(F)(F)F)nc(=O)c2c1-c1ccccc1 [Compound 16, 6-Benzoyl-5-phenyl-2-(trifluoromethyl)-1H-pyrrolo[2,3-d]pyrimidin-4(7H)-one] | 21.5 ± 0.4 µM | 21.1 ± 1.1 µM | – | – | – |
| COc1ccc(C(=O)c2[nH]c3[nH]cnc(=O)c3c2-c2cc(Br)cc(Br)c2)cc1 [Rig10, 5-(3,5-Dibromophenyl)-6-(4-methoxybenzoyl)-1H-pyrrolo[2,3-d]pyrimidin-4(7H)-one] | – | – | 0.3 ± 0.07 µM | 0.11 ± 0.035 µM | – |
| O=C(c1ccc(OCc2ccccc2)cc1)c1[nH]c2[nH]cnc(=O)c2c1-c1cc(Br)cc(Br)c1 [Rig11, 6-(4-(Benzyloxy)benzoyl)-5-(3,5-dibromophenyl)-1H-pyrrolo[2,3-d]pyrimidin-4(7H)-one] | – | – | 0.4 ± 0.01 µM | 0.31 ± 0.01 µM | – |
| O=C(c1ccc(F)cc1)c1[nH]c2[nH]cnc(=O)c2c1-c1cc(Br)cc(Br)c1 [Rig13, 5-(3,5-Dibromophenyl)-6-(4-fluorobenzoyl)-1H-pyrrolo[2,3-d]pyrimidin-4(7H)-one] | – | – | 6 ± 1 µM | 0.8 ± 0.01 µM | – |
| O=C(c1ccc(Br)cc1)c1[nH]c2[nH]cnc(=O)c2c1-c1cc(Br)cc(Br)c1 [Rig14, 6-(4-Bromobenzoyl)-5-(3,5-dibromophenyl)-1H-pyrrolo[2,3-d]pyrimidin-4(7H)-one] | – | – | 2 ± 1 µM | 0.6 ± 0.1 µM | – |
| COc1ccc(C(=O)c2[nH]c3[nH]cnc(=O)c3c2-c2cc(OC)c(OC)c(OC)c2)cc1 [Rig19, 6-(4-Methoxybenzoyl)-5-(3,4,5-trimethoxyphenyl)-1H-pyrrolo[2,3-d]pyrimidin-4(7H)-one] | – | – | – | – | GI50 ([1]; 48 h, read-out: GI50 in vitro Values, HeLa): > 100 µM; GI50 ([2]; MCF7, 48 h, read-out: GI50 in vitro Values, MCF-7): 7 ± 1 µM |
| O=C(c1ccccc1)c1[nH]c2[nH]cnc(=O)c2c1-c1cccc(Br)n1 [Rig30, 6-Benzoyl-5-(6-bromopyridin-2-yl)-1H-pyrrolo[2,3-d]pyrimidin-4(7H)-one] | – | – | 0.15 ± 0.05 µM | 0.135 ± 0.075 µM | – |
| COc1cc(-c2c(C(=O)c3ccccc3)[nH]c3[nH]cnc(=O)c23)cc(I)c1OC [Rig31, 6-Benzoyl-5-(3-iodo-4,5-dimethoxyphenyl)-1H-pyrrolo[2,3-d]pyrimidin-4(7H)-one] | – | – | 8 ± 1 µM | 40 ± 4 µM | – |
| COc1cc(-c2c(C(=O)c3ccccc3)[nH]c3[nH]cnc(=O)c23)cc(Br)c1OC [Rig32, 6-Benzoyl-5-(3-bromo-4,5-dimethoxyphenyl)-1H-pyrrolo[2,3-d]pyrimidin-4(7H)-one] | – | – | 7 ± 1 µM | 10 ± 5 µM | – |
| O=C(c1ccccc1)c1[nH]c2[nH]cnc(=O)c2c1-c1cccc(Br)c1 [Rig33, 6-Benzoyl-5-(3-bromophenyl)-1H-pyrrolo[2,3-d]pyrimidin-4(7H)-one] | – | – | 0.13 ± 0.05 µM | 0.06 ± 0.02 µM | – |
| O=C(c1ccccc1)c1[nH]c2[nH]cnc(=O)c2c1-c1cccc(Cl)c1 [Rig34, 6-Benzoyl-5-(3-chlorophenyl)-1H-pyrrolo[2,3-d]pyrimidin-4(7H)-one] | – | – | 0.1 ± 0.07 µM | 0.06 ± 0.02 µM | – |
| O=C(c1ccccc1)c1[nH]c2[nH]cnc(=O)c2c1-c1cccc(I)c1 [Rig36, 6-Benzoyl-5-(3-iodophenyl)-1H-pyrrolo[2,3-d]pyrimidin-4(7H)-one] | – | – | 0.2 ± 0.1 µM | 0.15 ± 0.06 µM | – |
| O=C(c1ccccc1)c1[nH]c2[nH]cnc(=O)c2c1-c1c(Cl)cccc1Cl [Rig40, 6-Benzoyl-5-(2,6-dichlorophenyl)-1H-pyrrolo[2,3-d]pyrimidin-4(7H)-one] | – | – | 4.88 ± 0.07 µM | 2.2 ± 0.3 µM | – |
| O=C(c1ccccc1)c1[nH]c2[nH]cnc(=O)c2c1-c1cccnc1 [Rig41, 6-Benzoyl-5-(pyridin-3-yl)-1H-pyrrolo[2,3-d]pyrimidin-4(7H)-one] | – | – | 0.888 ± 0.061 µM | 1.26 ± 0.18 µM | – |
| O=C(c1ccccc1)c1[nH]c2[nH]cnc(=O)c2c1-c1cccc(O)c1 [Rig42, 6-Benzoyl-5-(3-hydroxyphenyl)-1H-pyrrolo[2,3-d]pyrimidin-4(7H)-one] | – | – | 0.86 ± 0.06 µM | 1.1 ± 0.12 µM | – |
| N#Cc1cccc(-c2c(C(=O)c3ccccc3)[nH]c3[nH]cnc(=O)c23)c1 [Rig43, 3-(6-Benzoyl-4-oxo-4,7-dihydro-1H-pyrrolo[2,3-d]pyrimidin-5-yl)benzonitrile] | – | – | 0.187 ± 0.009 µM | 0.251 ± 0.017 µM | – |
| O=C(c1ccc(O)cc1)c1[nH]c2[nH]cnc(=O)c2c1-c1ccccc1 [Rig45, 6-(4-Hydroxybenzoyl)-5-phenyl-1H-pyrrolo[2,3-d]pyrimidin-4(7H)-one] | – | – | 0.303 ± 0.005 µM | 0.261 ± 0.05 µM | – |
